Data: patent US8563616B2, “Desensitizing drug product” (priority 2009, dated 2013)
Where two headings read alike, the source gives them in different places.

Experiments:
[1] = in the mixtures that formed a homogenous oil; cited from earlier work
[2] = Melt System III, cited from earlier work; for Percentage in aq: amount in aqueous phase/total amount in whole system × 100; for Percentage in oil: amount in oil phase/total amount in whole system × 100; for Conc in aq: g per 100 g of aqueous phase; for Conc in oil: g per 100 g of oil phase
[3] = pKa and ionization of lidocaine; type: physicochemical; conditions: pH 8.9
[4] = mixture containing 25% ethyl alcohol, 5% lidocaine, pH 9.2 phosphate buffer; cited from earlier work

SMILES | chemical stability [1] | Percentage in aq [2] | Percentage in oil [2] | Percentage in oil ([2]; listed as T) | Conc in aq [2] | Conc in oil [2] | ionized [3] | concentration of lidocaine in the oil [4] | Percentage in oil ([2]; listed as L)
Cc1ccc(C(C)C)c(O)c1 [Thymol, thymol] | chemically stable | 14.88% | approximately 85% | 85.13% | 0.09% | 10.60% | – | – | –
CCN(CC)CC(=O)Nc1c(C)cccc1C [Lidocaine, lidocaine] | – | 20.80% | approximately 80% | – | 1.09% | 87.00% | 10% | 73 % (w:w) | 79.20%
